According to patent publication US9884813B1, “Pharmaceutically acceptable salts of B-guanidinopropionic acid with improved properties and uses thereof” (Rgenix, Inc., priority 2017, dated 2018):
“Also recorded” adds a separate entry of the source. Where two headings read alike, the source gives them in different places.

Columns and labels:
Assay type in all cases: physicochemical
[1] = Solid form stability under stressed conditions (wet, dry, high humidity) by XRPD; details: for Dry_XRPD pattern: dry (45° C. under vacuum); for Humid_XRPD pattern: high humidity (RH >95%); for Wet_XRPD pattern: wet
Protocol: The solid form stability of each salt was studied by XRPD under stressed conditions: wet, dry (45° C. under vacuum) and high humidity (RH >95%).

[2] = Solid form stability at 40° C. and 75% humidity; details: 40° C. and 75% RH for seven days
Protocol: Solid form stability studies of β-GPA fumarate, succinate, and oxalate were carried out at 40° C. and 75% RH for seven days. Around 30 mg of the salts were placed in 4 mL vials which were placed in a saturated solution of sodium chloride (2 mL) with lids closed at 40° C. […]

[3] = Solid form stability of salts in different solvents (slurry, XRPD); details: 48 hours, room temperature
Protocol: Three salts were studied for solid form stability in water (disproportionation test), methanol, acetonitrile, and acetone:water (9:1) for 48 hours at room temperature.

[4] = Dynamic vapor sorption (DVS) with XRPD of the post-DVS sample; details: for solid form by XRPD after the DVS experiment: post DVS sample
Protocol: Samples were analyzed using an Aquadyne DVS-2 gravimetric water sorption analyzer. The relative humidity was adjusted between 2-95% and the weight of the sample was continuously monitored and recorded.
[…]: β-GPA maleate (1:1) Form II, β-GPA fumarate (1:1), β-GPA maleate (2:1), β-GPA succinate (2:1) and β-GPA oxalate (1:1) were analyzed by DVS experiment followed by XRPD analysis of the sample at the end of the experiment.
Sample 2162-64-1 was analyzed by DVS in triplicate and the post DVS samples were characterized by XRPD to identify the form at the end of the experiment.

[5] = Flowability measurement using Hanson Flodex unit; details: summary of density and Flodex measurements
Description: Method: A cylindrical vessel is secured to the stand and above that a funnel is also secured such that the bottom of the funnel is close to the vessel. A powder load of ≈50-60 g is then poured through the funnel into the middle of the cylinder. The lever device is pulled to open the hole in the disk quickly and without vibration. If a powder slowly flows through the small-diameter holes, leaving a cavity shaped like an upside-down, truncated cone, the test is considered positive. If a powder flocculates in bulk and falls abruptly, forming a cylindrical cavity, the test is considered negative. […] If the experiment is negative, the powder is tested again with a disk having a larger hole.

[6] = water (disproportionation test)

SMILES | stability in dry conditions [1] | stability under high humidity conditions [1] | Dry_XRPD pattern [1] | Humid_XRPD pattern [1] | Wet_XRPD pattern [1] | other results
CCS(=O)(=O)O.N=C(N)NCCC(=O)O [ethanesulfonic acid salt] | stable | deliquesced | – | – | – | –
N=C(N)NCCC(=O)O.O=C(O)/C=C/C(=O)O [β-GPA fumarate (1:1)] | stable | stable | Pattern 7A | Pattern 7A | Pattern 7A | solid form stability (XRPD) ([2]; listed as 1:1 fumarate salt): stable; XRPD pattern after slurry ([3]; acetone:water (9:1)): retain their XRPD pattern; XRPD pattern after slurry ([3]; acetonitrile): retain their XRPD pattern; XRPD pattern after slurry ([3]; methanol): retain their XRPD pattern; XRPD pattern after slurry ([3]; water (disproportionation test), listed as 1:1 β-GPA fumarate): retained their XRPD pattern; moisture uptake during the DVS experiment ([4]; listed as 1:1 β-GPA fumarate): < 1%; solid form by XRPD after the DVS experiment ([4]; listed as 1:1 fumarate salt): no form change; solid form by XRPD after the DVS experiment ([4]; listed as 1:1 β-GPA fumarate): presence of β-GPA peaks along with Pattern 7A
N=C(N)NCCC(=O)O.O=C(O)/C=C/C(=O)O [β-GPA fumarate] | – | – | – | – | – | solid form stability (XRPD) [2]: retained their original XRPD pattern; also recorded: stable; XRPD pattern after slurry [3, 6]: retained their XRPD patterns; solid form by XRPD after the DVS experiment [4]: retained their XRPD; also recorded: presence of two peaks from the β-GPA; flow character from the experimental data [5]: excellent
Cl.NC(N)=NCCC(=O)O [β-GPA hydrochloride] | stable | deliquesced | Pattern 1A | Deliquesce | Pattern 1A | –
N=C(N)NCCC(=O)O.O=C(O)C[C@H](O)C(=O)O [β-GPA malate (1:1)] | stable | deliquesced | Pattern 12A | Deliquesce | Pattern 12A | –
N=C(N)NCCC(=O)O.O=C(O)/C=C\C(=O)O [β-GPA maleate (1:1) Form II] | – | – | Pattern 6D | Pattern 6D | Pattern 6D | XRPD pattern after slurry ([3]; acetone:water (9:1)): matched with the original pattern of the salt (Pattern 6D) along with some additional peaks; XRPD pattern after slurry ([3]; acetonitrile): retain its XRPD pattern; XRPD pattern after slurry ([3]; methanol): retain its XRPD pattern; XRPD pattern after slurry [3, 6]: retained their XRPD patterns; moisture uptake during the DVS experiment [4]: ~25%; moisture uptake ([4]; at around 95% RH): around 25%; solid form by XRPD after the DVS experiment [4]: no form change
N=C(N)NCCC(=O)O.O=C(O)/C=C\C(=O)O [β-GPA maleate (1:1) Form I] | stable | stable | Pattern 6A | Pattern 6A | Pattern 6A | –
N=C(N)NCCC(=O)O.N=C(N)NCCC(=O)O.O=C(O)/C=C\C(=O)O [β-GPA maleate (2:1)] | – | – | Pattern 6C | Pattern 6B | Pattern 6B | –
CS(=O)(=O)O.N=C(N)NCCC(=O)O [β-GPA methanesulfonate] | stable | deliquesced | Pattern 19A | Deliquesce | Pattern 19A | –
N=C(N)NCCC(=O)O.O=P(O)(O)O [β-GPA phosphate] | stable | deliquesced | Pattern 4A | Deliquesce | Pattern 4A | –
